Test results from PubChem BioAssay (NCI).
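1) Cells in 96-well plates. 2) Compound, 48 h, 5 concentrations. 3) Linear interpolation between surrounding doses. 4) Unreached endpoint = highest concentration. TGI: total growth inhibition.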

Experiments:
Test in all cases: DTP human tumour cell line panel, 48 h
KM20L2 colon = system: KM20L2 colon
MALME-3M melanoma = system: MALME-3M melanoma
UO-31 renal = system: UO-31 renal
SF-268 CNS = system: SF-268 CNS
HCC-2998 colon = system: HCC-2998 colon
SK-OV-3 ovarian = system: SK-OV-3 ovarian
SNB-78 CNS = system: SNB-78 CNS
EKVX NSCLC = system: EKVX NSCLC
MOLT-4 leukemia = system: MOLT-4 leukemia
DMS 273 small cell lung = system: DMS 273 small cell lung

Row | Compound | TGI (KM20L2 colon) [µM] | TGI (MALME-3M melanoma) [µM] | TGI (UO-31 renal) [µM] | TGI (SF-268 CNS) [µM] | TGI (HCC-2998 colon) [µM] | TGI (SK-OV-3 ovarian) [µM] | TGI (SNB-78 CNS) [µM] | TGI (EKVX NSCLC) [µM] | TGI (MOLT-4 leukemia) [µM] | TGI (DMS 273 small cell lung) [µM]
1 | COC1OC(CO)C(O)C(NC(=O)N(C)N=O)C1O (configuration not stated) | > 100 | > 100 | > 100 | > 100 | > 100 | > 100 | > 100 | > 100 | > 100 | > 100
2 | OCC(O)COc1ccc(F)cc1 (configuration not stated) | > 100 | > 100 | > 100 | > 100 | > 100 | > 100 | > 100 | > 100 | > 100 | > 100
3 | O=C(Cc1c(C(=O)Nc2ccccc2)sc(C(=O)Nc2ccccc2)c1CC(=O)Nc1ccccc1)Nc1ccccc1 | > 100 | > 100 | > 100 | 13.7 | > 100 | > 100 | > 100 | > 100 | – | > 100
4 | CC(=O)OC1C(COC(N)=O)OC(n2c(-c3ccc(C)cc3)cc(-c3ccccc3)c(C#N)c2=O)C(OC(C)=O)C1OC(C)=O (configuration not stated) | > 100 | > 100 | > 100 | > 100 | > 100 | > 100 | > 100 | > 100 | > 100 | > 100
5 | O=C(O)COc1ccc2c3c1C(=O)CCC3CO2 (configuration not stated) | > 100 | > 100 | > 100 | > 100 | > 100 | > 100 | > 100 | > 100 | > 100 | > 100
6 | COC(=O)C(=O)C(C(=O)C(=O)Nc1ccccc1C(N)=O)c1nc2ccc([N+](=O)[O-])cc2[nH]c1=O (configuration not stated) | > 100 | > 100 | > 100 | > 100 | > 100 | > 100 | > 100 | > 100 | > 100 | > 100
7 | Cn1cnc([N+](=O)[O-])c1Sc1nccn1-c1ccccc1 | > 100 | 62.8 | > 100 | > 100 | > 100 | > 100 | > 100 | > 100 | 74.1 | > 100
8 | COC(=O)c1oc([N+](=O)[O-])c(-c2ccccc2)c1-c1ccccc1 | > 100 | > 100 | > 100 | > 100 | > 100 | > 100 | > 100 | > 100 | > 100 | > 100
9 | Cc1cc2c(cc1C)[n+](=O)c(C(=O)CC(=O)C(=O)Nc1ccccc1C)c(C)n2[O-] | > 100 | > 100 | > 100 | > 100 | > 100 | > 100 | > 100 | > 100 | > 100 | > 100
10 | c1ccc2c(CNCCCN3CCN(CCCNCc4cccc5ccccc45)CC3)cccc2c1 | 3.18 | 3.56 | 3.22 | 6.11 | – | 5.22 | 4.59 | 13.1 | 2.92 | 3.43
11 | N#CCC(=O)N/N=C(/C(=O)Nc1ccccc1)C1C(=O)N(c2ccccc2)N=C1N (configuration not stated) | > 100 | > 100 | > 100 | > 100 | > 100 | > 100 | > 100 | > 100 | > 100 | > 100
12 | Cc1cc2c(=O)cc(-c3ccc(O)cc3)oc2c(C(=O)O)c1C | > 100 | > 100 | > 100 | – | > 100 | > 100 | > 100 | > 100 | > 100 | > 100
13 | CC1=CC=C2C(C)(C)CC[C@@H]3OC(=O)[C@H]1[C@]23C | > 100 | > 100 | > 100 | > 100 | > 100 | > 100 | > 100 | > 100 | > 100 | > 100
14 | Cc1cc2c(=O)cc(-c3ccc(C(=O)O)cc3)oc2c(C(N)=O)c1C | > 100 | > 100 | > 100 | > 100 | > 100 | > 100 | > 100 | > 100 | > 100 | > 100
15 | CCC(CO)COC(=O)/C=C/C(=O)OCC(CC)CO (configuration not stated) | > 100 | > 100 | > 100 | > 100 | > 100 | > 100 | > 100 | > 100 | > 100 | > 100
16 | O=[N+]([O-])c1cccc(C=NC23CC4CC(CC(C4)C2)C3)c1 | > 100 | > 100 | > 100 | > 100 | > 100 | > 100 | > 100 | > 100 | > 100 | > 100
17 | CCOc1ccc(N=C2NC(=O)C(CC(=O)Nc3ccc(Cl)cc3Cl)S2)cc1 (configuration not stated) | > 100 | > 100 | > 100 | > 100 | > 100 | > 100 | > 100 | > 100 | > 100 | > 100
18 | CNC(=O)N(CCCC(NC(C)=O)C(=O)NCc1ccccc1)Cc1ccccc1 (configuration not stated) | > 100 | > 100 | > 100 | > 100 | > 100 | > 100 | > 100 | > 100 | > 100 | > 100
